In US10034475B2, “Treated biodiesel glycerin” (Auburn University, priority 2007, dated 2018):

Experiments:
[1] = system: reniform nematode Rotylenchulus reniformis; test: Greenhouse pot test, soil drench, reniform nematode population in soil; type: in vivo; conditions: 1 Kg infested soil per pot, drench in 100 mls; urea alone 150 mgs/Kg soil; NBG 1-5 mls/kg soil without urea
Experimental: The effect of neutralized bioglycerin (NBG), either in the presence or absence of organic nitrogen, was tested on the growth of cotton plants and parasitic nematodes. Neutralized bioglycerin (NBG) was applied at rates of 0, 1, 2, 3, 4, and 5 mls/kg soil either with or without urea (150 mgs/Kg soil of the compound to achieve about 70 mgs N/Kg soil). Applications were performed by drenching the soil in aqueous solution so that the final application volume per pot was 100 mls (which is equivalent to an acre inch of irrigation). Each pot contained 1 Kg of soil infested with the reniform nematode Rotylenchulus reniformis and there were 7 replications (pots)/treatment. Thus, for example, for the 1 ml NBG application there were 14 pots, 7 of which received each water up to 100 mls containing 1 ml NBG; the other 7 pots received each 1 ml NBG+150 mgs urea mixed in a final volume of 100 mls. The carbon:nitrogen ratios (C/N) of the combined treatments ranged from about 5.6 for the 1 ml NBG treatment to 28 for the 5 mls NBG treatment.

fungi = conditions: greenhouse and field experiments; cited from earlier work
nematodes = conditions: greenhouse and field experiments; cited from earlier work

Compound: NC(N)=O [Urea, urea]
- effect on reniform nematode numbers [1]: suppressed

Compound: C=CC=O [acrolein, 2-propenal]
- fungicidal activity (fungi): fungicidal
- nematocidal activity (nematodes): nematocidal
